Two compounds from US11452703B2, “Methods and compositions for reducing adipocyte numbers” (Peregrine Ophthalmic PTE LTD., priority 2020, dated 2022) can be followed below.

Data set [1] deals with intraconal fat deposit adipocytes. Nature of the data set: Short-term (7-day) adipocyte counts in intraconal fat after retrobulbar injection. Format: in vivo. The settings on record: rat, single retrobulbar injection, 25 μg/eye (DCA 2000 μg/eye), day 7 post-injection. The method, then: Free latanoprost, EggPC-latanoprost, and POPC-latanoprost were each introduced by retrobulbar injection into the orbit of the rat eye to ascertain its effect on intraconal fat deposits. As a positive control, deoxycholic acid (DCA; KYBELLA®) was also injected. DCA has been approved by the United States Food and Drug Administration for reducing fat cells in the chin.
Six rats were injected in a single eye for each of treatment. The contralateral eye of each animal was not injected, thus serving as a negative control.
The number of adipocytes present in the intraconal fat deposit at day 7 post-injection was counted by computer analysis of histopathology images and compared to the number of adipocytes in the contralateral un-injected eye. The results are shown in FIGS. 4A-4F and in Table 2 below.

The test system of data set [2] is intraconal orbital fat adipocytes. Nature of the data set: 21-day retrobulbar injection into orbital fat, histology and image analysis. The class given is in vivo, Lewis rats (Rattus norvegicus). On the set-up: Area of Retrobulbar Fat complex, Percentage Increase treated vs naïve control eyes / Mean Density of Adipocytes, Percent Increase treated vs naïve control eyes / Adipocyte Cell Counts, Percentage Decrease treated vs naïve control eyes: concentration or dose not given beside the values. Particulars: rat; for Adipocyte Cell Counts, Treated Eyes Mean ± SEM / Area of Retrobulbar Fat complex, Treated Eyes Mean ± SEM / Mean Density of Adipocytes, Treated Eyes Mean ± SEM: 25 μg/eye (DCA 2000 μg/eye), day 21, n = 6; for Adipocyte Cell Counts, Percentage Decrease treated vs naïve control eyes / Area of Retrobulbar Fat complex, Percentage Increase treated vs naïve control eyes / Mean Density of Adipocytes, Percent Increase treated vs naïve control eyes: day 21. The text has this:
Free latanoprost, EggPC-latanoprost, POPC-latanoprost, and DCA were each introduced by retrobulbar injection into the orbit of the rat eye to ascertain its effect on intraconal fat deposits over a three-week period.
(§1) Twenty-four male Lewis rats (Rattus norvegicus) at 8-10 weeks of age were used in the study. Their weights at the start of the study ranged from 250-300 g.
(§2) Six rats were assigned to each of four groups at least one day prior to drug dosing using a selection designed to achieve similar group mean body weights. Animals in Groups A-D were weighed prior to injection and weekly thereafter.
(§3) Rats were anesthetized and a 30-gauge needle was used to inject the drugs into the retrobulbar space of the right orbit of each animal. The left orbit served as a contra-lateral control. All rats awoke from anesthesia without complication.
On Day 21, 3 weeks after injection, rats were euthanized by cardiac perfusion with 4% paraformaldehyde. After perfusion, each rat was decapitated and the head was placed in a 10% formalin solution for 2 days. Each orbit was carefully exenterated subperiosteally with a scalpel and placed back in 10% formalin solution for 1 day (6 orbits from 3 animals per group) and the remaining orbits were placed back in a 10% formalin solution for 2 weeks. Exenterated orbits were embedded in paraffin and cut into 5 μm sections. Sections centered around the intraconal fat and optic nerve were stained with hematoxylin-eosin for histologic examination by a trained ocular pathologist and a second observer in a blinded fashion.
Sections were examined histologically for optic nerve injury, atrophy of orbital fat, adipocyte density, and cytotoxicity evidenced by, e.g., adipocytolysis, blood vessel injury and repair, neutrophilic inflammation, lysis of locally present neutrophils, hemorrhage, lipid lake formation, and neovascularization.
The intraconal fat of the orbital sections were examined under light microscopy and images scanned for further analysis. The areas of intraconal orbital fat were cropped and the adipocytes counted using ImageJ software (Rasband W.S., US National Institutes of Health, Bethesda, Md.) to determine adipocyte density using a previously described method. See Park et al., 2011, Jpn. J. Ophthalmol. 55:22-27. The density of adipocytes in the intraconal orbital fat area was calculated and compared between groups via a 2-tailed Student t test.
Adipocyte size heterogeneity was analyzed in the cropped images of the intraconal fat light using a maximally stable extremal regions-based segmentation algorithm implemented in MATLAB (Mathworks, Natick, Mass.). A maximally stable extremal region algorithm entitled VL_FEAT was used to find extremal regions with parameters of delta=1, maximum variation=0.2, minimum diversity=0.5. Maximally stable extremal region-determined regions with sizes less than 10 pixels or eccentricity larger than 0.9 was discarded as false positives. The mean segmented adipocyte size for each image was calculated and the groups were compared using Student t test.

The nature of data set [3]: Intraocular pressure pre- and 3-week post retrobulbar injection. Format: in vivo, Lewis rats (Rattus norvegicus). The settings on record: rat, pre-injection vs 3 weeks post-injection.
Excerpt: as §1, §2, §3
Intraocular pressure (TOP) measurements were taken pre- and 3-week post-injection of each eye of all 24 rats.

Data set [4] deals with C/EBPα. Nature of the data set: Quantitative real-time PCR of C/EBPα mRNA in adipocytes. The class given is cell-based. Particulars: adipocytes 9 or 15 days post differentiation, vs vehicle control. The method, then:
(§4) Adipose-derived mesenchymal stem cells, i.e., pre-adipocytes, were cultured and differentiated into adipocytes following established protocols. Briefly, adipose derived mesenchymal stem cells were obtained from ATCC (PCS500011™, Manassas, Va.) and cultured in Mesenchymal Stem Cell Basal Medium (ATCC® PCS500030™) with Growth Kit (ATCC® PCS500040™) at 37° C. in 5% CO2. To induce differentiation, ADMSC cultures were grown to 70% to 80% confluence and the medium replaced by adipogenic differentiation medium (StemPro® Adipogenesis Differentiation Kit; Gibco Life Technologies™, USA). The medium was changed twice weekly.
(§5) Gene expression in the treated and untreated adipocytes was examined by quantitative real-time PCR analysis. Total RNA from adipocytes was isolated using the RNAzol® RT reagent (Molecular Research Center, Inc., Cincinnati, Ohio, USA) and reverse-transcribed using the QuantiTect reverse transcription kit (Qiagen Inc., Chatsworth, Calif., USA) according to the supplier's instructions. Messenger RNA expression of adipogenesis-promoting genes C/EBPα, PPARγ, and LPL were determined by quantitative analysis of real-time PCR (RT-PCR) using FastStart Universal SYBR Green Master Mix (Roche Applied Science) in a LightCycler® 480 Real-Time PCR System (Roche Applied Science, Germany). […]
A general note: Real-time PCR tracks product formation cycle by cycle.

The subject of data set [5] is PPARγ. The data set can be described thus: Quantitative real-time PCR of PPARγ mRNA in adipocytes. Particulars: adipocytes 9 or 15 days post differentiation, vs vehicle control. Format: cell-based. The method, then: as §4, §5
Data set [6] deals with LPL. Nature of the data set: Quantitative real-time PCR of LPL mRNA in adipocytes. The class given is cell-based. Particulars: adipocytes 9 or 15 days post differentiation, vs vehicle control. The method, then: as §4, §5
Data set [7] relates to inguinal fat pad. The data set can be described thus: In vivo fat reduction by direct injection into inguinal fat pads. Particulars: mice, single injection 100 μL containing 100 μg latanoprost, 7 days post-injection. The method, then:
The ability of liposome-encapsulated latanoprost to reduce fat deposits in vivo was tested by direct injection into inguinal fat pads of mice.
Each of three animals were injected into one inguinal fat pad with 100 μL of vehicle, 100 μL containing 100 μg latanoprost, 100 μL of EggPC-latanoprost containing 100 μg latanoprost, or 100 μL of POPC-latanoprost containing 100 μg latanoprost. Seven days later, the mice were sacrificed and the weights of both the injected inguinal fat pad and the contralateral un-injected fat pad were measured.

Take `C[C@H](CCC(=O)O)[C@H]1CC[C@H]2[C@@H]3CC[C@@H]4C[C@H](O)CC[C@]4(C)[C@H]3C[C@H](O)[C@]12C` [DCA, deoxycholic acid]: the “Adipocyte cell count reduction (percent reduction in total adipocyte number in intraconal fat deposit vs contralateral un-injected eye)” value in data set [1] turned out to be 39.04%. In data set [2] (retrobulbar injection), the “Adipocyte Cell Counts, Treated Eyes Mean ± SEM” value is recorded as 179 ± 47; the “Area of Retrobulbar Fat complex, Treated Eyes Mean ± SEM” value came to 0.167 ± 0.093 mm^2; the “Mean Density of Adipocytes, Treated Eyes Mean ± SEM” value was found to be 7606.21 ± 754.39 cells/mm^3; the “Adipocyte Cell Counts, Percentage Decrease treated vs naïve control eyes” value came out at 37%. Moreover, in data set [2] (retrobulbar injection), the “Area of Retrobulbar Fat complex, Percentage Increase treated vs naïve control eyes” value is listed as 208% and the “Mean Density of Adipocytes, Percent Increase treated vs naïve control eyes” value is listed as 35%. For the same compound, in data set [3], the “Intraocular pressure (IOP) in injected eyes” value was “significant increase”.

With `CC(C)OC(=O)CCC/C=C\C[C@@H]1[C@@H](CC[C@@H](O)CCc2ccccc2)[C@H](O)C[C@@H]1O` [latanoprost], in data set [4], the “mRNA expression of adipogenesis-promoting gene C/EBPα” value was “suppressed expression”. The “mRNA expression of adipogenesis-promoting gene PPARγ” value in data set [5] is “suppressed expression”. The “mRNA expression of adipogenesis-promoting gene LPL” value in data set [6] is “suppressed expression”. Moreover, the “weight reduction of injected inguinal fat pad as compared to un-injected contralateral fat pad” value in data set [7] is recorded as “did not result in any weight reduction”. The “Adipocyte cell count reduction (percent reduction in total adipocyte number in intraconal fat deposit vs contralateral un-injected eye)” value in data set [1] is on record as 56.52%. In data set [2] (orbital injection, day 21, computer-aided morphological analysis), the “heterogeneity among adipocytes in the intraconal space as compared to naïve contra-lateral control orbits” value is listed as “more heterogeneity”. For the same compound, in data set [2] (retrobulbar injection), the “Adipocyte Cell Counts, Treated Eyes Mean ± SEM” value is listed as 108 ± 52; the “Area of Retrobulbar Fat complex, Treated Eyes Mean ± SEM” value turned out to be 0.131 ± 0.089 mm^2; the “Mean Density of Adipocytes, Treated Eyes Mean ± SEM” value was determined as 8574.68 ± 1456.73 cells/mm^3; the “Adipocyte Cell Counts, Percentage Decrease treated vs naïve control eyes” value is 61%. For the same compound, in data set [2] (retrobulbar injection), the “Area of Retrobulbar Fat complex, Percentage Increase treated vs naïve control eyes” value was 283% and the “Mean Density of Adipocytes, Percent Increase treated vs naïve control eyes” value is on record as 58%. In addition, the “change in the area of the retrobulbar fat complex after injection (significance)” value in data set [2] (retrobulbar injection, day 21, quantitative image analysis) is “significant increases”. Moreover, in data set [3], the “Intraocular pressure (IOP) in injected eyes” value is on record as “remained stable”.
